Entries after “also recorded” stand apart in the source; their conditions may differ. Read-outs that look alike come from different tables or passages of the source.
How the values were obtained:
in vitro [1] = conditions: African green monkey, CC50, Vero cells, MTT; concentration causing 50% cell death
in vitro [2] = conditions: dog
Coxsackie B3 virus [3] = assay: Antiviral (cytoprotection, MTT) assay against Coxsackie B3 virus in Vero cells; type: cell-based, coxsackievirus B3; conditions: for SI: CC50/IC50 ratio, Coxsackie B3 / Vero; for IC50: Enterovirus B, B3, Vero, 48 h, 50% inhibition of virus replication, Vero cells
[4] = tested on: A/Puerto Rico/8/34 (H1N1) influenza virus; assay: Antiviral (cytoprotection, MTT) assay against influenza virus in MDCK cells; type: cell-based; conditions: for SI: CC50/IC50 ratio, influenza H1N1 / MDCK; for IC50: 48 h
MDCK cells = conditions: earlier published compounds; cited from earlier work
[5] = tested on: A/Puerto Rico/8/34 (H1N1) influenza virus; design: method as in PMID 32930935; conditions: cited from earlier work; for IC50: 50% inhibition of virus replication, MDCK cells, earlier published compounds; for SI: CC50/IC50 ratio, influenza H1N1 / MDCK; for antiviral activity against influenza virus A H1N1 (in words): monosubstituted analogues
Vero cells = conditions: cited from earlier work
Coxsackie B3 virus [6] = tested on: Coxsackie B3 virus; design: method as in PMID 32930935; conditions: cited from earlier work; for IC50: 50% inhibition of virus replication, Vero cells; for SI: CC50/IC50 ratio, Coxsackie B3 / Vero
[7] = Influenza A virus, H1N1, MDCK, 50% inhibition of virus replication, MDCK cells, read-out: IC50
[8] = 50% inhibition of virus replication, MDCK cells, read-out: IC50

## Cc1cc(=O)n(Cc2cn(C3OC(CO)C(O)C3O)nn2)c(=O)n1Cc1cn(C2OC(CO)C(O)C2O)nn1 (stereo not shown) [Compound 2g]
In vitro [1]
  CC50: > 543 µM
In vitro [2]
  CC50: > 543 µM
Coxsackie B3 virus [3]
  SI: 1
  IC50: > 543 µM
[4]
  SI: 1
[4]; Influenza A virus, H1N1, MDCK
  IC50: > 543 µM
[4]; [7]
  IC50: > 100 µM
[4]; MDCK cells
  antiviral activity against influenza virus A H1N1 (in words): did not demonstrate antiviral activity

## Cc1cc(=O)n(CCCc2cn(C3OC(CO)C(O)C3O)nn2)c(=O)n1CCCc1cn(C2OC(CO)C(O)C2O)nn1 (stereo not shown) [Compound 2h]
In vitro [1]
  CC50: > 493 µM
In vitro [2]
  CC50: > 493 µM
Coxsackie B3 virus [3]
  SI: 1
  IC50: > 493 µM
[4]
  SI: 1
[4]; Influenza A virus, H1N1, MDCK
  IC50: > 493 µM
[4]; [7]
  IC50: > 100 µM

## Cc1cc(=O)[nH]c(=O)n1Cc1cn([C@@H]2O[C@H](CO)[C@@H](O)[C@H]2O)nn1 [Compound 2j]
MDCK cells
  CC50: > 885 µM
[5]
  IC50: > 885 µM
  SI: 1
  antiviral activity against influenza virus A H1N1 (in words): did not demonstrate antiviral activity
Vero cells
  CC50: > 1180 µM
Coxsackie B3 virus [6]
  IC50: > 1180 µM
  SI: 1 ^4

## Cc1cc(=O)[nH]c(=O)n1CCCc1cn([C@@H]2O[C@H](CO)[C@@H](O)[C@H]2O)nn1 [Compound 2k]
[5]
  IC50: 43 ± 5 µM
  SI: 6 ^4
Vero cells
  CC50: > 1090 µM
Coxsackie B3 virus [6]
  IC50: > 1090 µM
  SI: 1 ^4,3

## Cc1cc(=O)[nH]c(=O)n1CCCCc1cn([C@@H]2O[C@H](CO)[C@@H](O)[C@H]2O)nn1 [Compound 2m]
[5]
  IC50: 48 ± 6 µM
  SI: 6 ^4
Coxsackie B3 virus [6]
  IC50: 106 ± 11 µM
  SI: 6 ^4,3

## CC(=O)OCC1OC(n2cc(CCCCn3c(=O)c4ccccc4n(CCCCc4cn(C5OC(COC(C)=O)C(OC(C)=O)C5OC(C)=O)nn4)c3=O)nn2)C(OC(C)=O)C1OC(C)=O (stereo not shown) [Compound 4f]
In vitro [2]
  CC50: > 324 µM
[4]
  SI: 3
[4]; [7]
  IC50: 104 ± 15.1 µM
[4]; MDCK cells
  antiviral activity against influenza virus A H1N1 (in words): inactive

## O=c1c2ccccc2n(Cc2cn(C3OC(CO)C(O)C3O)nn2)c(=O)n1Cc1cn(C2OC(CO)C(O)C2O)nn1 (stereo not shown) [Compound 4g]
In vitro [1]
  CC50: 381 ± 26.1 µM
In vitro [2]
  CC50: > 510 µM
Coxsackie B3 virus [3]
  SI: 2
  IC50: > 170 µM
[4]; [8]
  IC50: 180 ± 19.9 µM
[4]
  SI: 3
[4]; [7]
  IC50: > 100 µM

## O=c1c2ccccc2n(CCCc2cn(C3OC(CO)C(O)C3O)nn2)c(=O)n1CCCc1cn(C2OC(CO)C(O)C2O)nn1 (stereo not shown) [Compound 4h]
In vitro [1]
  CC50: > 465 µM
In vitro [2]
  CC50: > 465 µM
Coxsackie B3 virus [3]
  SI: 1
  IC50: > 465 µM
[4]; [8]
  IC50: 186 ± 21.6 µM
[4]
  SI: 3
[4]; [7]
  IC50: > 100 µM
[4]; MDCK cells
  antiviral activity against influenza virus A H1N1 (in words): did not demonstrate antiviral activity

## O=c1c2ccccc2n(CCCCc2cn(C3OC(CO)C(O)C3O)nn2)c(=O)n1CCCCc1cn(C2OC(CO)C(O)C2O)nn1 (stereo not shown) [Compound 4i]
In vitro [1]
  CC50: > 446 µM
In vitro [2]
  CC50: > 446 µM
Coxsackie B3 virus [3]
  SI: 1
  IC50: > 446 µM
[4]; [8]
  IC50: 297 ± 32.4 µM
[4]
  SI: 2
[4]; [7]
  IC50: 297 µM

## O=c1[nH]c(=O)n(Cc2cn([C@@H]3O[C@H](CO)[C@@H](O)[C@H]3O)nn2)c2ccccc12 [Compound 4j]
[5]
  IC50: 42 ± 5 µM
  SI: 3
Coxsackie B3 virus [6]
  IC50: 133 ± 15 µM
  SI: 1 ^4

## O=c1[nH]c(=O)n(CCCc2cn([C@@H]3O[C@H](CO)[C@@H](O)[C@H]3O)nn2)c2ccccc12 [Compound 4k]
MDCK cells
  CC50: > 744 µM
[5]
  IC50: 212 ± 25 µM
  SI: 4 ^4
  antiviral activity against influenza virus A H1N1 (in words): did not demonstrate antiviral activity
Vero cells
  CC50: 101 ± 8 µM
Coxsackie B3 virus [6]
  IC50: > 82 µM
  SI: 1 ^4,3

## O=c1[nH]c(=O)n(CCCCc2cn([C@@H]3O[C@H](CO)[C@@H](O)[C@H]3O)nn2)c2ccccc12 [Compound 4m]
MDCK cells
  CC50: > 719 µM
[5]
  IC50: 30 ± 4 µM
  SI: 24
Coxsackie B3 virus [6]
  IC50: > 79 µM
  SI: 1 ^4,3

## O=c1c2nc3ccccc3nc2n(Cc2cn(C3OC(CO)C(O)C3O)nn2)c(=O)n1Cc1cn(C2OC(CO)C(O)C2O)nn1 (stereo not shown) [Compound 5g]
In vitro [1]
  CC50: > 468 µM
In vitro [2]
  CC50: > 468 µM
Coxsackie B3 virus [3]
  SI: 1
  IC50: > 468 µM
[4]; [8]
  IC50: 187 ± 20.8 µM
[4]
  SI: 3
[4]; [7]
  IC50: > 100 µM

## O=c1c2nc3ccccc3nc2n(CCCc2cn(C3OC(CO)C(O)C3O)nn2)c(=O)n1CCCc1cn(C2OC(CO)C(O)C2O)nn1 (stereo not shown) [Compound 5h]
In vitro [1]
  CC50: > 431 µM
In vitro [2]
  CC50: > 431 µM
Coxsackie B3 virus [3]
  SI: 1
  IC50: > 431 µM
[4]; [8]
  IC50: 115 ± 15.2 µM
[4]
  SI: 4
[4]; [7]
  IC50: > 100 µM

## CC(=O)OCC1OC(n2cc(CCCc3c(C)[nH]c(=O)n(CCCc4cn(C5OC(COC(C)=O)C(OC(C)=O)C5OC(C)=O)nn4)c3=O)nn2)C(OC(C)=O)C1OC(C)=O (stereo not shown) [Compound 11c]
In vitro [2]
  CC50: > 349 µM
[4]
  SI: 12
[4]; [7]
  IC50: 29.2 ± 4.3 µM

## CC(=O)OCC1OC(n2cc(CCCCc3c(C)[nH]c(=O)n(CCCCc4cn(C5OC(COC(C)=O)C(OC(C)=O)C5OC(C)=O)nn4)c3=O)nn2)C(OC(C)=O)C1OC(C)=O (stereo not shown) [Compound 11d]
In vitro [2]
  CC50: > 338 µM
[4]
  SI: 3
[4]; [7]
  IC50: 119 ± 8.7 µM
[4]; MDCK cells
  antiviral activity against influenza virus A H1N1 (in words): did not demonstrate antiviral activity; also recorded: inactive

## Cc1[nH]c(=O)n(CCCc2cn(C3OC(CO)C(O)C3O)nn2)c(=O)c1CCCc1cn(C2OC(CO)C(O)C2O)nn1 (stereo not shown) [Compound 11e]
In vitro [1]
  CC50: 394 ± 21.1 µM
In vitro [2]
  CC50: > 493 µM
Coxsackie B3 virus [3]
  SI: 2
  IC50: > 164 µM
[4]
  SI: 3
[4]; [7]
  IC50: 164 ± 19.2 µM
[4]; MDCK cells
  antiviral activity against influenza virus A H1N1 (in words): completely inactive

## Cc1[nH]c(=O)n(CCCCc2cn(C3OC(CO)C(O)C3O)nn2)c(=O)c1CCCCc1cn(C2OC(CO)C(O)C2O)nn1 (stereo not shown) [Compound 11f]
In vitro [1]
  CC50: > 471 µM
In vitro [2]
  CC50: > 471 µM
Coxsackie B3 virus [3]
  SI: 1
  IC50: > 471 µM
[4]
  SI: 1
[4]; Influenza A virus, H1N1, MDCK
  IC50: > 471 µM
[4]; MDCK cells
  antiviral activity against influenza virus A H1N1 (in words): did not demonstrate antiviral activity

## Cc1[nH]c(=O)[nH]c(=O)c1CCCc1cn([C@@H]2O[C@H](CO)[C@@H](O)[C@H]2O)nn1 [Compound 11g]
MDCK cells
  CC50: 104 ± 8 µM
[5]
  IC50: 67 ± 8 µM
  SI: 2 ^4
Vero cells
  CC50: 140 ± 10 µM
Coxsackie B3 virus [6]
  SI: 4 ^4

## Cc1[nH]c(=O)[nH]c(=O)c1CCCCc1cn([C@@H]2O[C@H](CO)[C@@H](O)[C@H]2O)nn1 [Compound 11h]
MDCK cells
  CC50: 79 ± 6 µM
[5]
  IC50: 15 ± 3 µM
  SI: 5
Vero cells
  CC50: 525 ± 31 µM
Coxsackie B3 virus [6]
  IC50: > 263 µM
  SI: 2 ^4

## CC(=O)OC[C@H]1O[C@@H](n2cc(CCCCc3c(C)[nH]c(=O)[nH]c3=O)nn2)[C@H](OC(C)=O)[C@@H]1OC(C)=O [Compound 11i]
MDCK cells
  CC50: > 592 µM
[5]
  IC50: > 592 µM
  SI: 1 ^4
  antiviral activity against influenza virus A H1N1 (in words): did not demonstrate antiviral activity

## Cc1[nH]c(=O)[nH]c(=O)c1CCCCc1cn([C@@H]2O[C@H](CO)[C@@H](O)[C@H]2O)nn1 [Compound 11j]
MDCK cells
  CC50: > 787 µM
[5]
  IC50: > 787 µM
  SI: 1
  antiviral activity against influenza virus A H1N1 (in words): did not demonstrate antiviral activity

## CCC(CC)O[C@@H]1C=C(C(=O)O)C[C@H](N)[C@H]1NC(C)=O [Oseltamivir carboxylate, reference compound]
In vitro [2]
  CC50: > 200 µM
[4]
  SI: >667
[4]; Influenza A virus, H1N1, MDCK
  IC50: 0.3 ± 0.06 µM

## Cc1cc(CCCOc2c(C)cc(-c3noc(C(F)(F)F)n3)cc2C)on1 [Pleconaril, reference compound]
In vitro [1]
  CC50: > 1000 µM
Coxsackie B3 virus [3]
  SI: 46
  IC50: 21.6 µM

## CC(N)C12CC3CC(CC(C3)C1)C2 (stereo not shown) [Rimantadine, reference compound]
In vitro [2]
  CC50: 340 ± 16 µM
[4]
  SI: 4
[4]; Influenza A virus, H1N1, MDCK
  IC50: 77 ± 8 µM

From article PMC8234143, “Synthesis and Antiviral Evaluation of Nucleoside Analogues Bearing One Pyrimidine Moiety and Two D-Ribofuranosyl Residues” (Molecules, 2021)
